Here are results for 2 compounds from patent US8748369B2, “Use of targeted nitroxide agents in bone healing” (University of Pittsburgh-Of the Commonwealth System of …, priority 2009, dated 2014).

One series deals with NOD/SCID mice. The experiment in a line: Proposed: human marrow stromal cell seeding into irradiated limbs of NOD/SCID mice. Format: in vivo, mouse. The following applies: MnSOD-PL prior to cell infusion; JP4-039 daily after cell transplantation. The source says: The following can be used to select and optimize the best GS-nitroxide JP4-039 (radiation damage mitigator drug) that can enhance human bone marrow stromal cell and fresh human stromal cell line seeding efficiency into irradiated limbs of NOD/SCID mice. MnSOD-overexpressing cells are a positive control.
A. Experiments with KM101-MnSOD/ds-red (control KM101-ds-red) clonal cell lines. Groups of 12 NOD/SCID mice receive 300 cGy total body irradiation (low dose leg) and a 1000 cGy boost to the left hind leg (high dose leg), then 24 hours later intravenous injection of 1×10^5 or 1×10^6 cells of each cell line (groups 1 and 2). Group 3 is mice that receive MnSOD-PL intravenously 24 hours prior to irradiation and then injection of KM101-MnSOD/ds-red. […] This experiment may be conducted essentially as described above (A), with all groups, but with a sub-group receiving JP4-039 (24 hours) after radiation (same day as cell lines are injected, or a sub-group receiving intraperitoneal JP4-039 (daily or weekly after cell line transplantation). Cells may be explanted from the high dose and low dose irradiated femurs at days 7, 14, 21, and cultured in vitro for human stromal colony forming progenitor cells (CFU-F). The percent and total number of human cells entering the high dose and low dose irradiated limbs can be quantitated by cell sorting for ds-red. […]

The test system of series [1] is mouse embryonic cells, mitochondria. As to the kind of experiment: EPR-based analysis of integration and distribution of nitroxides (Example 9). The following applies: 10 μM nitroxides for 10 min. Format: cell-based. The protocol:
To compare the integration efficiency, mouse embryonic cells (1×10^7/mL) were incubated with 10 μM nitroxides for 10 min. ESR spectra of nitroxide radicals in the incubation medium, cell suspension or mitochondrial suspension were recorded after mixing with acetonitrile (1:1 v/v) after 5-min incubation with 2 mM K3Fe(CN)6 using JEOL-RE1X EPR spectrometer under the following conditions: 3350 G center field; 25 G scan range; 0.79 G field modulation, 20 mW microwave power; 0.1 s time constant; 4 min scan time. Integration efficiency was calculated as (Einitial−Emedium)/Einitial×100%. Mitochondria were isolated using a mitochondria isolation kit (Pierce, Rockford, Ill.) according to the manufacturer's instruction. Amounts of nitroxide radicals integrated into mitochondria were normalized to the content of cytochrome c oxidase subunit IV.

Another series concerns mouse embryonic cells. The experiment in a line: Gamma irradiation induced apoptosis (cytochrome c release, PS externalization). Format: cell-based. The method, then: Externalization of PS was analyzed by flow cytometry using annexin-V kit. Briefly, harvested cells were stained with annexin-V-FITC and PI for 5 min in dark prior to flow cytometry analysis. Ten thousand events were collected on a FACScan flow cytometer (Becton-Dickinson) supplied with CellQuest software.
(A) XJB-5-125 blocks γ-irradiation induced accumulation of cytochrome c in the cytosol of mouse embryonic cells. (B) Densitometry ratio of cytochrome c/actin. Semi-quantitation of the bands was carried out by densitometry using Labworks Image Acquisition and Analysis Software (UVP, Upland, Calif.). The level of cytochrome c release was expressed as the mean densitometry ratio of cytochrome c over actin. (C) Dose (5, 10 and 20 μM) dependent radioprotective effect of XJB-5-125 (pre-treatment) on γ-irradiation (10 Gy) induced phosphatidylserine (PS) externalization. After 48 h post-irradiation incubation, cells were harvested and stained with annexin-V-FITC and propodium iodide (PI) prior to flow cytometry analysis. (D) Time (2, 3, 4, 5, and 6 h) dependent radioprotective effect of XJB-5-125 (20 μM) on γ-irradiation (10 Gy) induced PS externalization (48 h post irradiation) in mouse embryonic cells. […] Externalization of PS was analyzed 72 h post-irradiation exposure. […]

Where a SMILES comes first, the peptide text is derived from it. [ ]: non-standard residue; d: D form. The star is where a group is joined. NH(TEMPO-4-yl) = CC1(C)CC(N*)CC(C)(C)N1[O]; Orn = NCCC[C@H](N)C(=O)O; Cbz = O=C(OCc1ccccc1)*; Boc = CC(C)(C)OC(=O)*

As to `CC(C)C[C@@H](/C=C/CC(=O)NC1CC(C)(C)N([O])C(C)(C)C1)NC(=O)OC(C)(C)C` [JP4-039, (S,E)-5-(tert-Butoxycarbonylamino)-7-methyloct-3-enoic acid-TEMPO], the “engraftment of KM101 stromal cell lines” value in the series on NOD/SCID mice is listed as “facilitate improved stability of engraftment”.

As to `CC(C)C[C@H](NC(=O)OC(C)(C)C)C(=O)N[C@H](Cc1ccccc1)C(=O)N1CCC[C@H]1C(=O)N[C@H](C(=O)N[C@@H](CCCNC(=O)OCc1ccccc1)C(=O)NC1CC(C)(C)N([O])C(C)(C)C1)C(C)C` [XJB-5-125] (Boc-L[dF]PV[Orn](Cbz)-{NH(TEMPO-4-yl)}), the “integration into cells and mitochondria compared with non-conjugated 4-amino-TEMPO” value in series [1] is “much more efficiently”. The “gamma irradiation induced apoptosis” value in the series on mouse embryonic cells (10 Gy) is given as “protects”. For the same compound, the “γ-irradiation induced accumulation of cytochrome c in the cytosol” value in the series with mouse embryonic cells (mouse embryonic cells) was “blocks”.
